Each structure is given as a SMILES string. Values after ≈ are worked out from the molar mass of the structure shown.

The subject of the first assay is Escherichia coli (10536 strain). As to the kind of experiment: 15 second contact suspension kill assay (Example 1 protocol, also Example 3). The assay is classed as cell-based. To be noted: 15 s contact. The source says: The efficacies of antimicrobial agents can be usefully compared by determining the Minimum Biocidal Concentration (MBC). The MBC is defined as the lowest absolute concentration of the particular active that provides complete kill (zero bacterial growth). The differing behaviours of inhibitory antimicrobtals in Isolation and mixtures have been widely explored using the concept of the Fractional Concentration and Fractional Inhibitory Concentration (FIC). See for instance J R W Lambert and R Lambert, J. Appl. Microblol 95, 734 (2003); T. Jadavji. C G Prober and R Cheung. Antimicrobial Agents and Chemotherapy 26, 91 (1984), and WO 2004/006876. These parameters can be defined as follows:
[formula] [formula] By analogy the Fractional Biocidal Concentration (FBC) is given by:
Antimicrobial efficacy is tested against a representative pathogenic bacterial organism, Gram negative Escherichia coli. Concentrations of actives are expressed in terms of the percentage weight/volume (% w/v) throughout Example 1.
An overnight culture of Escherichia coli (10536 strain) was prepared in 50 ml total volume of TSB broth, grown for ca. 18 hrs at 37° C. and shaken at 150 rpm. 1 ml of this overnight E. coli culture was transferred to 50 ml of fresh TSB broth and incubated at 37° C. at 150 rpm for ca. 4 hours. This culture was separated into equal volumes and centrifuged at 4000 rpm for 15 minutes, washed with sterile saline (0.85% NaCl), centrifuged once more and re-suspended in saline to give a final concentration of 0.8 OD620 equivalent to about 10^8 cells per milliliter for this particular organism. Here, OD620 indicates the absorbance of a sample in a cuvette of 1.0 cm path length at a wavelength of 620 nm. This bacterial stock was used for assaying against antimicrobial actives (in triplicate).
The following assay describes the testing of 8 materials using 6 dilutions across half of a 96-well micro titre plate (MTP). Using this approach it is possible to assay 16 actives (without replicates) with one full dilution plate, replicating this set up in two halves of the plate columns, 1-6 and 7-12.
1M solutions of the test actives were prepared in dimethylsulphoxide (DMSO).
Aliquots (270 μl) of the materials at 1.11 times the final concentration were dispensed into the wells of the MTP along one column (A1-H1). This MTP was labelled as the “Screening plate”.
In another MTP, labelled as the “Dilution plate”, 270 μl of D/E neutralising solution from DIFCO Composition was added to column 1. The composition of the neutralising solution was as follows: pancreatic digest of casein, 5.0 g/L; Yeast Extract, 2.5 g/L; Dextrose, 10 g/L, sodium thioglycollate, 1.0 g/L, sodium thiosulphate, 6.0 g/L; sodium bisulphite, 2.5 g/L; Polysorbate 80, 5.0 g/L; lecithin 7.0 g/L; bromocresol purple, 0.02 g/L with a pH in the range 7.6±0.2.
270 μl of tryptone diluent solution was added to all the remaining wells of the Dilution MTP (columns 2-6).
Bacterial stock (30 μl) was then added to the prepared 270 μl of the solution of actives in the Screening Plate and mixed, using a multichannel pipette with 8 tips to aspirate and dispense the same volume of bacterial stock in parallel to 8 wells in rows A-H. After a contact time of 15 seconds, the mixtures were quenched by transferring 30 μl volumes of the mixtures into the 270 μl D/E neutralising solution in the prepared dilution plate, using aspiration to mix. After exactly 5 minutes in the DIE neutralising solution, 30 μl volumes were transferred from column 1 to column 2 of the Dilution MTP and mixed, before transferring further 30 μl volumes from column 2 into column 3. This process was repeated serially diluting the bacteria across the plate to column 6.
30 μl volumes from each well in the Dilution MTP were transferred onto pre-labelled segment of Tryptone Soya Agar (TSA) plates starting from the lowest bacterial concentration (highest dilution, column 6) to the highest bacterial concentration (column 1).
For `Cc1ccc(C(C)C)c(O)c1` [A, thymol, reference compound], the “bacterial kill (in words)” value was “not showing bacterial kill”.
The same measure, in the same setting: then `CC1=CCC(C(C)(C)O)CC1` (stereo not drawn) [B, alpha-terpineol, reference compound], with “not showing bacterial kill”.

Staying with this assay, now noted: 15 s contact; active concentrations (% w/v) as defined per example; 0 = complete kill; mean of triplicate.
Regarding `CC1=CCC(C(C)(C)O)CC1` (stereo not drawn) [1:4, alpha-terpineol], the “NMBS, mean bacterial survival” value is reported as 0 log CFU/ml.
In the case of `CC1=CCC(C(C)(C)O)CC1` (stereo not drawn) [1:5, alpha-terpineol], the “NMBS, mean bacterial survival” value was 0 log CFU/ml.
Turning to `CC1=CCC(C(C)(C)O)CC1` (stereo not drawn) [1:6, alpha-terpineol], the “NMBS, mean bacterial survival” value amounted to 7 log CFU/ml.
For the compound `CC1=CCC(C(C)(C)O)CC1` (stereo not drawn) [1:7, alpha-terpineol], the “NMBS, mean bacterial survival” value was found to be 7 log CFU/ml.
Regarding `CCCc1ccc(O)cc1` [1:8, 4-n-propylphenol], the “NMBS, mean bacterial survival” value amounted to 0 log CFU/ml.
For the compound `CCCc1ccc(O)cc1` [1:9, 4-n-propylphenol], the “NMBS, mean bacterial survival” value is 7.8 log CFU/ml.
With `CCCCc1ccc(O)cc1` [1:12, 4-n-butylphenol], the “NMBS, mean bacterial survival” value turned out to be 0 log CFU/ml.
In the case of `CCCCc1ccc(O)cc1` [1:13, 4-butylphenol], the “NMBS, mean bacterial survival” value stood at 7.0 log CFU/ml.
Consider `CCCCCc1ccc(O)cc1` [1:15, 4-n-pentylphenol], for which the “NMBS, mean bacterial survival” value was 0 log CFU/ml.
For `CCCCCc1ccc(O)cc1` [1:16, 4-pentylphenol], the “NMBS, mean bacterial survival” value is on record as 6.6 log CFU/ml.
The same measure, in the same setting: next, `CC(C)(C)c1ccccc1O` [1:18, 2-tert-butylphenol]: 0 log CFU/ml; `CC(C)(C)c1ccccc1O` [1:19, 2-tert-butylphenol]: 7.5 log CFU/ml.
On the same count and under the same terms, next, `CC(C)(C)c1cccc(O)c1` [1:21, 3-tert-butylphenol]: 0 log CFU/ml; `CC(C)(C)c1cccc(O)c1` [1:22, 3-tert-butylphenol]: 7.6 log CFU/ml; `CCC(C)c1ccccc1O` (stereo not shown) [1:24, 2-sec-butylphenol]: 0 log CFU/ml.
The same measure, in the same setting: next, `CCC(C)c1ccccc1O` (stereo not shown) [1:25, 2-sec-butylphenol]: 7.5 log CFU/ml.
Consider `CCC(C)c1ccc(O)cc1` (stereo not shown) [1:27, 4-sec-butylphenol], for which the “NMBS, mean bacterial survival” value is listed as 0 log CFU/ml.
Same read-out and setting: next, `CCC(C)c1ccc(O)cc1` (stereo not shown) [1:28, 4-sec-butylphenol]: 4.1 log CFU/ml; `CCC(C)c1ccc(O)cc1` (stereo not shown) [1:29, 4-sec-butylphenol]: 7.6 log CFU/ml; `Oc1ccccc1C1CCCC1` [1:31, 2-cyclopentylphenol]: 0 log CFU/ml.
The same measure, in the same setting: then `Oc1ccccc1C1CCCC1` [1:32, 2-cyclopentylphenol], with 3.4 log CFU/ml; and `Oc1ccccc1C1CCCC1` [1:33, 2-cyclopentylphenol], with 7.5 log CFU/ml.
Consider `Oc1ccc(C2CCCC2)cc1` [1:35, 4-cyclopentylphenol], for which the “NMBS, mean bacterial survival” value is given as 0 log CFU/ml.
As for `Oc1ccc(C2CCCC2)cc1` [1:36, 4-cyclopentylphenol], the “NMBS, mean bacterial survival” value is recorded as 7.1 log CFU/ml.
Consider `C/C=C/c1ccccc1O` [1:38, (E)-2-(prop-1-enyl)phenol], for which the “NMBS, mean bacterial survival” value stood at 0 log CFU/ml.
Still for that read-out and setting: next, `C/C=C/c1ccccc1O` [1:39, (E)-2-(prop-1-enyl)phenol]: 6.9 log CFU/ml; `Oc1ccccc1Cc1ccccc1` [1:41, 2-benzylphenol]: 0 log CFU/ml; `Oc1ccccc1Cc1ccccc1` [1:42, 2-benzylphenol]: 7.1 log CFU/ml.
Regarding `Oc1ccc(Cc2ccccc2)cc1` [1:44, 4-benzylphenol], the “NMBS, mean bacterial survival” value is 0 log CFU/ml.
Same read-out and setting: next, `Oc1ccc(Cc2ccccc2)cc1` [1:45, 4-benzylphenol]: 3.8 log CFU/ml; `Oc1cccc(-c2ccccc2)c1` [3:1, 3-phenylphenol]: 4.3 log CFU/ml; `Oc1cccc(-c2ccccc2)c1` [3:2, 3-phenylphenol]: 7.4 log CFU/ml.
The same measure, in the same setting: then `Oc1cccc(-c2ccccc2)c1` [3:3, 3-phenylphenol], with 7.7 log CFU/ml.

Still in this assay, the particulars now being: Escherichia coli, 15 s, read-out: Minimum biocidal concentration (MBC), component alone; lowest tested concentration giving zero bacterial survival after 15 s; upper boundary.
Consider `Oc1cccc(-c2ccccc2)c1` [3-phenylphenol], for which the MBC is no less than 1250 µg/mL.

The assay is the same for the next values; noted with them: Escherichia coli, 15 s; component alone; lowest tested concentration giving zero bacterial survival after 15 s; upper boundary; read-out: Minimum biocidal concentration (MBC).
Take `CC(C)(C)c1cccc(O)c1` [3-tert-butylphenol]: the MBC was found to be 800 µg/mL (≈ 5.33 mM).
For `CCCCc1ccc(O)cc1` [4-n-butylphenol], the MBC was found to be 250 µg/mL (≈ 1.66 mM).
On the same count and under the same terms, then `Cc1ccc(C(C)C)c(O)c1` [Thymol, thymol, reference compound], with 500 µg/mL (≈ 3.33 mM).

Another assay deals with Escherichia coli (E. coli - ATCC #10536). As to the kind of experiment: Automated assessment of efficacy in surfactant base, 15 seconds exposure, OD450/OD590 readout (Example 4). The assay is classed as cell-based. To be noted: cocoyl glycinate and lauroamphoacetate. How it is done:
In these examples, the efficacy of combinations of monosubstituted phenols and terpineol were tested in a surfactant cleansing formulation comprising 2.85% sodium cocoyl glycinate and 1.85% sodium lauroamphoacetate. This corresponds to a 50% in use dilution with water of a typical neat formulation containing 5.7% cocoyl glycinate and 3.7% % sodium lauroamphoacetate during hand washing. Solutions were prepared such that the concentrations of the surfactant components and test actives were 1.1 times the final desired concentration in order to allow for dilution with the bacterial inoculum in the test. The solutions were manually adjusted to pH 10.0 by dropwise addition of sodium hydroxide solution, as measured with a pH meter at ambient temperature. Solutions of the monosubstituted phenols and/or terpineols were prepared at a maximum of 24 hours before testing. The same terpineol was used as in Example 1.
The efficacy of the combinations of the present invention was determined against the same bacterium as in Example 1, Escherichia coli (E. coli—ATCC #10536), at a concentration of approximately 1×10^8 bacteria per mL.
Tests were conducted using standard microtiter plate assays using an automated liquid handling system. 270 μl of the surfactant test solution was pipetted into each well of the microtitre plate (Nunc F Gamma Irradiated 96F untreated microtitre plates of clear polystyrene) and 30 μl of the bacterial suspension was then added. After exactly 15 seconds of bacterial exposure, a 30 μl volume of bacterial cells was withdrawn and transferred to 270 μl of D/E quench solution. After 5 minutes in the D/E quench, the optical density (OD) was measured for each plate in turn at two specific wavelengths (450 nm and 590 nm). These provide a dual check of antimicrobial activity, as the OD450 reading is specific for the yellow colour of D/E quench when bacterial growth is observed, whereas OD590 is specific for the initial purple colour of the D/E quench which is retained if no bacterial growth is observed. After the time zero OD measurements, plates were then incubated at 37° C. overnight (16 hours) before repeating the OD measurements. Delta OD values were calculated by subtracting […] at time=16 hours. Bacterial growth is observed as an increase in OD450 and a decrease in OD590. To identify antibacterially efficacious systems (those preventing appreciable bacterial growth after incubation), the following threshold changes in OD readings have been adopted: if (1). OD450 increases by less than 0.2 absorbance unit (AU) on incubation and (2). OD590 decreases by less than 0.35 AU on incubation. Conversely, where OD450 increases by more than […] after incubation, corresponding to a colour shift from purple to yellow, the test system allows bacterial growth and is not deemed efficacious. Four replicate measurements in the same plate have been made for each test system. The number of replicate wells showing either bacterial growth or no growth is also readily assessed by eye by following the colour change. Thymol and terpineol were tested both alone and in combination for comparison purposes.
In some selected cases, the combinations were also tested at the weight ratio 1:1.
The surfactants used are not themselves antimicrobially active against E. coli at the concentrations employed as shown by the results of Ex. (4:1) in Table 24. Thus, any antimicrobial efficacy can be ascribed to the monosubstituted phenols and/or terpineol. Table 25 presents MBC-values determined similarly as described for Example 1.
Regarding `Oc1cccc(-c2ccccc2)c1` [3-phenylphenol], the “antimicrobial action in combination with terpineol in the presence of surfactant (in words)” value (shortened to “antimicrobial action in combination”) is given as “enhanced antimicrobial action”.
For the compound `CC(C)(C)c1cccc(O)c1` [3-tert-butylphenol], the “antimicrobial action in combination” value was “enhanced antimicrobial action”.
In the case of `CCCCc1ccc(O)cc1` [4-n-butylphenol], the “antimicrobial action in combination” value is “enhanced antimicrobial action”.
With `CC(C)(C)c1ccc(O)cc1` [4-tert-butylphenol], the “antimicrobial action in combination” value is recorded as “enhanced antimicrobial action”.

Source of the values: patent US9504248B2, “Antimicrobial composition” (Rohm and Haas Company, priority 2011, dated 2016).
